According to patent publication US12428394B2, “2,4-disubstituted pyrimidine derivative, preparation method therefor and use thereof” (CHENGDU ZENITAR BIOMEDICAL TECHNOLOGY CO., LTD., priority 2019, dated 2025):
Like-named read-outs stand apart in the source and are kept apart here.

How the values were obtained:
JAK2 = target: T1, JAK2 (Homo sapiens, UniProt O60674); assay: In vitro kinase activity experiment, JAK2; format: biochemical; conditions: inhibition rate of enzyme at 500 nM; measured by Eurofins
T1 construct: purchased Eurofins
Method: (§1) Buffer solution ([…], pH 7.0, 0.2 mm EDTA, 10 mM mncl2), kinase to be tested, substrate of kinase to be tested, 10 mM magnesium acetate and γ33P-ATP solution, and compounds with different concentrations were added to a reaction tube in turn, then MgATP was added to initiate the enzyme reaction process, and incubated at room temperature for 40 min. Then, the reaction was terminated with 5 μl of […], and 10 μl of the reaction solution was titrated onto the Filtermat A membrane, washed with 75 mM phosphate solution for three times, each time for 5 min., and then washed with methanol once. Finally, the Filtermat A membrane was dried and the scintillation count was carried out.

[1] = test system: MV4-11 cells (FLT3-ITD+/+); assay: Inhibition of cell proliferation by MTT experiment, MV4-11; format: cell-based, human; conditions: MTT, 72 h, read-out: IC50 value on cell proliferation inhibition, MV4-11 FLT3-ITD+/+
Description: (§2) MV4-11, MOLM-13 and SET-2 were used to determine the influence of the test compound of the present invention on the activity of cancer cells. MV4-11 and MOLM-13 were human leukemia cell lines from American Type Culture Collection (ATCC), expressing FLT3 receptor and containing FLT3-ITD mutation; and SET-2 was a primary thrombocythemia cell purchased from Chengdu Bowerston Biotechnology Co., Ltd., China, continuously expressing JAK2 receptor and containing the mutation of V617F.
(§3) MV4-11, MOLM-13 and SET-2 cells were filled in a 96-well petri dish with 100 μL IMDM as the medium, containing 10% fetal bovine serum (100 mL/bottle, purchased from Grassland Lvye Bio-Engineering Materials Co., Ltd. and cryopreserved at −20° C.), and with 10,000-15,000 cells in each well. […] In each group, 3-5 replicate wells were set and incubated in 5% CO2 at 37° C. for 72 h. At the endpoint, 20 μL MTT (5 mg/mL) was added to each well, and the cells were incubated for another 1-3 h.
(§4) After the inhibition rate of each concentration of compound on cell proliferation activity was calculated, the dose-response curve and IC50 value were fitted by Graphpad prism software according to the compound treatment concentrations and corresponding inhibition rates.

[2] = test system: MOLM-13 cells (FLT3-ITD-/+); assay: Inhibition of cell proliferation by MTT experiment, MOLM-13; format: cell-based, human; conditions: MTT, 72 h, read-out: IC50 value on cell proliferation inhibition, MOLM-13 FLT3-ITD-/+
Description: as §2, §3, §4

SET-2 cells (JAK2 V617F) = assay: Inhibition of cell proliferation by MTT experiment, SET-2; format: cell-based; conditions: MTT, 72 h, read-out: IC50 value on cell proliferation inhibition, SET-2 (V617F)
Description: as §2, §3, §4

FLT3 = target: T2, FLT3 (Homo sapiens, UniProt P36888); assay: In vitro kinase activity experiment, FLT3; format: biochemical; conditions: inhibition rate of enzyme at 500 nM, measured by Eurofins; for inhibition at 0.5 µM: 40 min, read-out: Kinase activity @ 500 nM (%) FLT3
T2 construct: purchased Eurofins
T2 sequence (P36888 27-993): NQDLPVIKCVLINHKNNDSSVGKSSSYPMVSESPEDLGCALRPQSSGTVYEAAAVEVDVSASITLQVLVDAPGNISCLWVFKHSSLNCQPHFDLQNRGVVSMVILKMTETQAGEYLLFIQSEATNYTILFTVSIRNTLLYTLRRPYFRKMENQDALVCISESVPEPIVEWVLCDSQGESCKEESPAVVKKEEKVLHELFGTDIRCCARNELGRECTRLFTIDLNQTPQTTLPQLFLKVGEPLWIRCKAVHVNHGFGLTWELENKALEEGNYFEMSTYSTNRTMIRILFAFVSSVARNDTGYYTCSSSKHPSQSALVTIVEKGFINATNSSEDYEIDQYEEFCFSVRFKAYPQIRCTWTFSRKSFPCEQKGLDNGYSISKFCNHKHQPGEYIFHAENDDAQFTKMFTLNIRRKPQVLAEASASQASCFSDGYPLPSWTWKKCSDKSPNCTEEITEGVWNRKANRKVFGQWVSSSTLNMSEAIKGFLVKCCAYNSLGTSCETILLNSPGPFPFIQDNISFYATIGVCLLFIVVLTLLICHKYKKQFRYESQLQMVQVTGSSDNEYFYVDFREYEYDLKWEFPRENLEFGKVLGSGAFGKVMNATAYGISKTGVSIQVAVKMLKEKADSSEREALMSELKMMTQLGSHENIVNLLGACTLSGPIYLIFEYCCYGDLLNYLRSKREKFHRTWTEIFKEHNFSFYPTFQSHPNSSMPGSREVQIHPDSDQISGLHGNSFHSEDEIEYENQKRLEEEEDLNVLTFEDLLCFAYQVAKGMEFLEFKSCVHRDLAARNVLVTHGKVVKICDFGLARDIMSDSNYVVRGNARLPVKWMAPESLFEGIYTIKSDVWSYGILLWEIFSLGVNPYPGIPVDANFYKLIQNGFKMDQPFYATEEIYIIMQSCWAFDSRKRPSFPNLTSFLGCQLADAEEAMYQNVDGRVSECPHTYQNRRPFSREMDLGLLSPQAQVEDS
Method: as §1

T1 sequence (O60674 whole entry): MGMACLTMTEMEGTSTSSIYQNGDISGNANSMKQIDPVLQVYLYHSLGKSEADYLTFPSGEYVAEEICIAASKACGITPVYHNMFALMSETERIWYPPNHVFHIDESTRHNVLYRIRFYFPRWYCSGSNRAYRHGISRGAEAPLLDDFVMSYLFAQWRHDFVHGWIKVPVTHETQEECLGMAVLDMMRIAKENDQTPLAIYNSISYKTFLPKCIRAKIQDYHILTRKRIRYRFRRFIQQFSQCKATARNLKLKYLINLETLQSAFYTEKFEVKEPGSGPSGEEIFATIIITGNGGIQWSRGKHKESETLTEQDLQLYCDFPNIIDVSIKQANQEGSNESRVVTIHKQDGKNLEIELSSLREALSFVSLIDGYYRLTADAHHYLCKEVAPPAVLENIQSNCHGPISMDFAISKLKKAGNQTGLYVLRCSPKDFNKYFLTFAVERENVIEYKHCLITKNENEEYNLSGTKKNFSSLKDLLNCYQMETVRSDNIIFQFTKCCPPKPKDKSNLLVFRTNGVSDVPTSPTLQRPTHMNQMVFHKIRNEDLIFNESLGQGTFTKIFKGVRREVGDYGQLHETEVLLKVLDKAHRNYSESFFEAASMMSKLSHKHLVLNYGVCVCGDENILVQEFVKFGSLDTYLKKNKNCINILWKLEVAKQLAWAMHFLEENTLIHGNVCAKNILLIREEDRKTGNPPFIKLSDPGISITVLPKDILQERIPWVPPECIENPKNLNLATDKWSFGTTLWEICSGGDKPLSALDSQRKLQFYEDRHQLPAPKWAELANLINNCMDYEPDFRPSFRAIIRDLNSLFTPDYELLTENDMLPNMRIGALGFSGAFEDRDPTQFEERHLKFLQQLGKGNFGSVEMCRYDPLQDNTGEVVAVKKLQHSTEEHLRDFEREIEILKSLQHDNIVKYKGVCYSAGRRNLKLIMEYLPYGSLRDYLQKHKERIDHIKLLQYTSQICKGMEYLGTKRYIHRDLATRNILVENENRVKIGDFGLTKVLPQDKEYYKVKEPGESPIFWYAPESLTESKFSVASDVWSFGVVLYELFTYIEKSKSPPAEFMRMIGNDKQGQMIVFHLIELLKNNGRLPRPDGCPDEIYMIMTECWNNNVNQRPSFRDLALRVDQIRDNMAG

| Structure (SMILES) | Kinase activity @ 500 nM (%) JAK2 (JAK2) [%] | IC50 ([1]; Homo sapiens, MV4-11) [nM] | IC50 ([2]; Homo sapiens, MOLM-13) [nM] | IC50 (SET-2 cells (JAK2 V617F); Homo sapiens, SET-2) [nM] | inhibition at 0.5 µM (FLT3) [%] | IC50 [1] [nM] | IC50 [2] [nM] | IC50 (SET-2 cells (JAK2 V617F)) [nM] | Kinase activity @ 500 nM (%) FLT3 (FLT3) [%] |
| --- | --- | --- | --- | --- | --- | --- | --- | --- | --- |
| Cc1cnc(Nc2ccc(S(=O)(=O)NC3CC3)cc2)nc1-c1cnn(C(C)C)c1 [CLJ-99, N-cyclopropyl-4-((4-(1-isopropyl-1H-pyrazol-4-yl)-5-methylpyrimidine-2-yl)amino) benzenesulfonamide] | 100 | 10 to 100 | 10 to 100 | 100 to 1000 | 97 |  |  |  |  |
| C=CS(=O)(=O)NCCc1ccc(Nc2ncc(C)c(-c3cnn(C(C)C)c3)n2)cc1 [CLJ-90] | 97 | 10 to 100 | 10 to 100 | 100 to 1000 | 95 |  |  |  |  |
| Cc1cnc(Nc2ccc(CNC(=O)CCCl)cc2)nc1-c1cnn(C(C)C)c1 [CLJ-87, N-(4-((4-(1-isopropyl-1H-pyrazole-4-yl)-5-methylpyrimidine-2-yl)amino)benzyl)-3-chloropropanamide] | 39 | > 1000 | > 1000 | > 1000 | 45 |  |  |  |  |
| Cc1cnc(Nc2ccc(CNC(=O)/C=C/CN(C)C)cc2)nc1-c1cnn(C(C)C)c1 [CLJ-79, (E)-N-(4-((4-(1-isopropyl-1H-pyrazole-4-yl)-5-methylpyrimidine-2-yl)amino)benzyl)-4-dimethylamino-2-butenamide] | 44 | 100 to 1000 | 100 to 1000 | 100 to 1000 | 45 |  |  |  |  |
| CCN(CCN1CCOCC1)C1CCN(c2ccc(Nc3ncc(C)c(-c4cnn(C(C)C)c4)n3)cc2F)CC1 [CLJ-59, N-(3-fluoro-4-(4-(ethyl(morpholinoethyl)amino)piperidine-1-yl)phenyl)-4-(1-isopropyl-1H-pyrazole-4-yl)-5-methylpyrimidine-2-amine] | 98 | 1 to 10 | 100 to 1000 | 100 to 1000 | 97 |  |  |  |  |
| Cc1cnc(Nc2ccc(N3CCC(N(C)CCN4CCN(C)CC4)CC3)c(F)c2)nc1-c1cnn(C(C)C)c1 [CLJ-56, N-(3-fluoro-4-(4-(methyl (4-methyl-1-piperazine ethyl)amino)piperidine-1-yl)phenyl)-4-(1-isopropyl-1H-pyrazole-4-yl)-5-methylpyrimidine-2-amine] | 99 | 10 to 100 | 10 to 100 | 100 to 1000 | 96 |  |  |  |  |
| Cc1cnc(Nc2ccc(NC(=O)CN3CCS(=O)(=O)CC3)c(F)c2)nc1-c1cnn(C(C)C)c1 [CLJ-98, 2-(1,1-dioxthiomorpholine)-N-(2-fluoro-4-((4-(1-isopropyl-1H-pyrazol-4-yl)-5-methylpyrimidine-2-yl)amino)phenyl) acetamide] | 97 | 10 to 100 | 10 to 100 | 100 to 1000 | 95 |  |  |  |  |
| Cc1c(-c2nc(Nc3ccc(N4CCN(C)CC4)c(F)c3)ncc2F)cnn1C(C)C [CLJ-35] | 92 | 10 to 100 | 100 to 1000 | 100 to 1000 | 91 |  |  |  |  |
| CCCC(O)CN1CC2(CCN(c3ccc(Nc4ncc(C)c(-c5cnn(C(C)C)c5)n4)cc3F)CC2)C1 (stereo not shown) [CLJ-70, N-(3-fluoro-4-(2,7-diazaspiro [3.5]nonane-2-hydroxypentyl-7-yl)phenyl)-4-(1-isopropyl-1H-pyrazol-4-yl)-5-methylpyrimidine-2-amine] | 90 |  |  |  |  | 10 to 100 | 10 to 100 | 100 to 1000 | 91 |
| Cc1cnc(Nc2ccc(CNC(=O)CCl)cc2)nc1-c1cnn(C(C)C)c1 [CLJ-85, N-(4-((4-(1-isopropyl-1H-pyrazole-4-yl)-5-methylpyrimidine-2-yl)amino)benzyl)-2-chloroacetamide] | 56 | 100 to 1000 | > 1000 | > 1000 | 67 |  |  |  |  |
| CCN1CCN(c2ccc(Nc3ncc(F)c(-c4cnn(C(C)C)c4)n3)cc2F)CC1 [CLJ-26, 5-fluoro-N-(3-fluoro-4-(4-ethylpiperazine-1-yl)phenyl)-4-(1-isopropyl-1H-pyrazole-4-yl) pyrimidine-2-amine] | 19 | > 1000 | > 1000 | > 1000 | 30 |  |  |  |  |
| CCCn1cc(-c2nc(Nc3ccc(N4CCN(C)CC4)c(F)c3)ncc2F)cn1 [CLJ-7, 5-fluoro-N-(3-fluoro-4-(4-methylpiperazine-1-yl)phenyl)-4-(1-propyl-1H-pyrazol-4-yl) pyrimidine-2-amine] | 38 | 100 to 1000 | 100 to 1000 | > 1000 | 28 |  |  |  |  |
| Cc1cnc(Nc2ccc(NC(=O)[C@H]3CCCN3CC3CC3)c(F)c2)nc1-c1cnn(C(C)C)c1 [CLJ-96, (R)-1-(cyclopropylmethyl)-N-(2-fluoro-4-((4-(1-isopropyl-1H-pyrazole-4-yl)-5-methylpyrimidine-2-yl)amino)phenyl) pyrrolidine-2-carboxamide] | 73 | 100 to 1000 | 100 to 1000 | 100 to 1000 | 56 |  |  |  |  |
| CC(C)n1cc(-c2nc(Nc3cccc(N4CCN(C)CC4)c3)ncc2F)cn1 [CLJ-19, 5-fluoro-N-(3-(4-methylpiperazine-1-yl)phenyl)-4-(1-isopropyl-1H-pyrazol-4-yl) pyrimidine-2-amine] | 92 | 10 to 100 | 100 to 1000 | 100 to 1000 | 95 |  |  |  |  |
